{
  "source": "patent US8987228B2",
  "about": "“Pharmaceutical composition including an A3 adenosine receptor agonist 1-deooxy-1-[N6-(3-idobenzyl)-adenin-9-yl]-N-methyl-β-D-ribofuronamide(IB-MECA/CF-101) for treatment of psoriasis” (Can-Fite Biopharma Ltd., priority 2009, dated 2015)",
  "test_system": "moderate-to-severe chronic plaque psoriasis",
  "experiment": "Phase 2, multi-center, randomized, double-blind, placebo-controlled clinical study in psoriasis patients (PASI assessment)",
  "assay_type": "in vivo, human",
  "conditions": "12 weeks",
  "procedure": "A Phase 2, multi-center, randomized, double-blind, placebo-controlled clinical study was conducted in adult males and females, with ages of 18 to 70 years, with a diagnosis of moderate-to-severe chronic plaque psoriasis.\nEligible patients were randomly assigned to receive either placebo or a clinical grade […][N^6-(3-iodobenzyl)-adenin-9-yl]-N-methyl-β-D-ribofuronamide, IB-MECA (code-named by the study sponsor, Can-Fite Biopharma, the Assignee of this application, as “CF101”) at doses of 1 mg, 2 mg and 4 mg, taken orally twice daily (namely, total daily doses of 2 mg, 4 mg and 8 mg, respectively). IB-MECA was formulated in a tablet formulation as detailed in Table 1 below. Patients were instructed to take the formulation on an empty stomach. The study duration was 12 weeks.\nThe study was carried out in cohorts:\nCohort 1: 1 mg IB-MECA or placebo.\nCohort 2: 2 mg IB-MECA or placebo.\nCohort 3: 4 mg IB-MECA or placebo.\nWithin each cohort, patients were randomly assigned to either IB-MECA or placebo in a 3:1 ratio.\nDisease was assessed using the Psoriasis Area and Severity Index (PASI).\nSixty two (62) patients were evaluated that belonged ton the following treatment groups (administration twice a day): […]",
  "note": "Entries after “also recorded” stand apart in the source; their conditions may differ.",
  "data": [
    {"molecule": "CNC(=O)[C@H]1O[C@@H](n2cnc3c(NCc4cccc(I)c4)ncnc32)[C@H](O)[C@@H]1O", "note": "[IB-MECA, 1-deoxy-1-[N^6-(3-iodobenzyl)-adenin-9-yl]-N-methyl-β-D-ribofuronamide]", "values": [
      {"measurement": "change in the Psoriasis Area and Severity Index (PASI) score from baseline over the study period", "setting": "2 mg IB-MECA orally twice daily (total 4 mg/day) versus placebo, patients with moderate-to-severe chronic plaque psoriasis, FIG. 1", "result": "continuous improvement in the patients' condition throughout the course of the study; also recorded: marked effect"},
      {"measurement": "difference between three doses of IB-MECA in the change in the PASI score from baseline over the study period", "setting": "2 mg twice daily (total 4 mg/day) compared with 1 mg and 4 mg twice daily (2 mg/day and 8 mg/day), oral, FIG. 2", "result": "considerably greater response over the two other tested dose groups; also recorded: significantly more effective in treatment of the psoriatic plaques than treatment of psoriasis at daily doses of 2 mg or 8 mg; also recorded: superior to a lower daily dose of 2 mg or a higher dose of 8 mg"}
    ]}
  ]
}
